Source: PMC3430621, “HPLC–MS/MS Analysis of a Traditional Chinese Medical Formulation of Bu-Yang-Huan-Wu-Tang and Its Pharmacokinetics after Oral Administration to Rats” (PLoS ONE, 2012)
Where two headings read alike, the source gives them in different places.

How the values were obtained:
[1] = Pharmacokinetics in conscious freely moving rats after oral administration of BYHWT extract (HPLC-MS/MS of plasma); type: in vivo, Sprague-Dawley rats; conditions: rat plasma, BYHWT extract 10 g/kg p.o.; for Cmax / Tmax / half-life: male, Sprague-Dawley, po, n = 6; for Cmax: read-out: Cmax; for Tmax: read-out: Tmax (converted); for half-life: read-out: t1/2
Excerpt: The protocol listed below has been reviewed and approved by the Institutional Animal Care and Use Committee (IACUC; approval number 1010409) by the Institutional Animal Experimentation Committee of the National Yang-Ming University. Male pathogen-free Sprague-Dawley rats (250±50 g body weight) were obtained from the Laboratory Animal Center of National Yang Ming University. The animals had free access to food (Laboratory rodent diet 5P14, PMI Feeds, Richmond, IN, USA) and water was allowed at all times. All animal experiments followed the National Yang-Ming University guidelines and procedures for the care of laboratory animals. […] Experimental rats were initially anesthetized with pentobarbital (50 mg/kg, i.p.), and polyethylene tubing was implanted in the right jugular vein for blood sampling. The tube crossed the subcutaneous tissue and was fixed at its exit from the dorsal neck region. The patency tubing was maintained by filling with heparinized saline (20 units/mL). After surgery, the rats were placed in experimental cages and allowed to recuperate for one day. The rats were kept fasted for 12 h and water were available ad libitum before the BYHWT administration. […] In our study, the dose of BYHWT (10 g/kg) was appropriate for oral administration in rats. […] The condensed blood collection in the absorption phase is to figure out the maximum concentration and the time when it reaches the maximum concentration. The time points in the elimination phase are not close. This strategy is commonly used in the pharmacokinetic studies but the total blood consumption should not be over 20% of body blood. In these experimental rats, the total blood sampling volume is within 20% during 12 h. Plasma was separated by centrifuging the blood sample at 6000 rpm for 10 min at 4°C. […] The samples were vortexed and centrifuged at 16,100×g for 10 min. In our micro-analysis, less than 200 μL is needed. Actually, the collected blood volume is around 120-150 μL for each time point. After centrifugation, the plasma samples (50 μL) were vortex-mixed with 100 μL of acetonitrile. The supernatants were collected and filtered. Around 20 μL aliquot of the supernatants was transferred into the vial for analysis by HPLC-MS/MS system. The acetonitrile but not the real sample was used in the needle pre-wash standard procedure [19]. The LC-MS/MS system consisted of an Agilent 1100 series LC with automatic liquid chromatographic sampler, injector, bi-pump and degasser; and Applied Biosystems/MDS Sciex API 3000 tandem quadrupole mass spectrometry equipped with electrospray ionization (ESI) interface using the following parameters: nebulizer gas (NEB):10, curtain gas (CUR): 7, collisionally activated dissociation gas (CAD): 12, ionspray voltage (IS): 5000 V, turbo ionspray temperature (TEM): 450°C. Nitrogen was used in all cases. The mass spectrometer was operated in the positive ion detection mode. […] The following linear gradient program was applied to the analyte with the mobile phase consisting of methanol (0.1% formic acid, solvent A) and NH4OAc (0.1% formic acid, solvent B): 0-1 min: 30-70% A; 1-2 min 70-90%; 2-8 min: 90-90%; 8-9 min: 90-30%, 9-18 min: 30-30%, v/v. […] The flow rate was maintained at […]. Pharmacokinetic parameters including maximum plasma concentration (Cmax), time to reach the maximum concentrations (Tmax), half-life (t1/2), area under concentration-time curve (AUC) and oral clearance (CL) were estimated by a non-compartmental analysis using the pharmacokinetic program, WinNonlin Standard Edition Version 1.1 (Scientific Consulting, Apex, NC, USA). All results were expressed as average mean ± standard deviation (S.D.). ANOVA was used to evaluate differences, and a value of P<0.05 was taken as statistically significant.

[2] = Stability of the analytes in rat plasma samples (freeze-thaw, short-term, long-term, autosampler); type: in vitro ADME; conditions: n = 3; for Stability (%) Autosampler stability: autosampler 8°C 12 h; for Stability (%) Short-term stability: room temperature 6 h; for Stability (%) Freeze-thaw stability: three freeze-thaw cycles; for Stability (%) Long-term stability: −20°C 14 days
Description: Stability was also assessed using the low, medium and high concentrations of analytes. Freeze-thaw stability was assessed over three freeze-thaw cycles. Short-term stability was determined by placing the samples at room temperature for 6 h. Long-term stability was evaluated by analyzing samples kept at −20°C for 14 days. Autosampler stability was determined by maintaining the samples at the autosampler temperature (8°C) for 12 h. All stabilities were calculating as the ratio of average concentration and freshly prepared samples.

[3] = parameters: method as in PMID 17931809; conditions: cited from earlier work

Row | SMILES | Cmax [1] | Tmax [1] | half-life [1] | absorption phase in the plasma concentration-time curve [1] | Stability (%) Autosampler stability ([2]; concentration 1 (µg/mL)) | Stability (%) Short-term stability ([2]; concentration 1 (µg/mL)) | Stability (%) Freeze-thaw stability ([2]; concentration 1 (µg/mL)) | Stability (%) Long-term stability ([2]; concentration 1 (µg/mL)) | Stability (%) Autosampler stability ([2]; concentration 10 (µg/mL)) | Stability (%) Short-term stability ([2]; concentration 10 (µg/mL)) | Stability (%) Freeze-thaw stability ([2]; concentration 10 (µg/mL)) | Stability (%) Long-term stability ([2]; concentration 10 (µg/mL)) | Stability (%) Autosampler stability ([2]; concentration 100 (µg/mL)) | Stability (%) Short-term stability ([2]; concentration 100 (µg/mL)) | Stability (%) Freeze-thaw stability ([2]; concentration 100 (µg/mL)) | Stability (%) Long-term stability ([2]; concentration 100 (µg/mL)) | also measured
1 | CCC/C=C1\OC(=O)C2=C1CCC=C2 [Ligustilide, ligustilide] | 7.8 ± 0.2 ng/mL | 0.75 h | 4.45 ± 0.02 h | double-peak absorption phase | 2.0±10% | 14±11% | 8.7±5.9% | 6.7±10% | 13±7.2% | 11±10% | 2.7±2.2% | 5.0±14% | −1.6±10% | 12±7.5% | 6.5±1.4% | 23±12% | 
2 | COc1ccc(-c2coc3cc(O[C@@H]4O[C@H](CO)[C@@H](O)[C@H](O)[C@H]4O)ccc3c2=O)cc1 [Ononin, ononin] | 19 ± 4.5 ng/mL | 0.583 h | 2.23 ± 0.16 h | single and plateau absorption phase | 4.7±7.7% | 12±6.3% | 3.9±6.4% | −7.2±10% | −7.0±1.4% | −12±4.6% | −2.5±7.3% | −6.2±2.9% | 8.1±3.8% | 6.7±2.1% | 4.2±1.3% | 3.2±3.9% | 
3 | C[C@@]12C[C@@]3(O)O[C@@H](O1)[C@]1(COC(=O)c4ccccc4)[C@H]3C[C@@]12O[C@@H]1O[C@H](CO)[C@@H](O)[C@H](O)[C@H]1O [Paeoniflorin, paeoniflorin] | 97 ± 33 ng/mL | 0.583 h | 1.55 ± 0.533 h | single and plateau absorption phase |  |  |  |  | −3.3±7.3% | 7.7±10% | 7.3±4.6% | 21±15% | −1.6±8.2% | −1.8±9.4% | 2.1±1.8% | 10±7.3% | Stability (%) Autosampler stability ([2]; concentration 1000 (µg/mL)): 8.5±5.1%; Stability (%) Short-term stability ([2]; concentration 1000 (µg/mL)): 11±8.4%; Stability (%) Freeze-thaw stability ([2]; concentration 1000 (µg/mL)): 9.5±0.2%; Stability (%) Long-term stability ([2]; concentration 1000 (µg/mL)): 27±9.9%
4 | COc1cc2c(c(OC)c1OC)-c1ccc(OC)c(=O)cc1[C@@H](NC(C)=O)CC2 [colchicine] |  |  |  |  |  |  |  |  |  |  |  |  |  |  |  |  | AUC ([3]; donor rats): 847.7 ± 141.0 µg·min/mL; AUC ([3]; recipient rats): 55.5 ± 29.2 µg·min/mL
